Measured values from patent US20170105969A1, “CENICRIVIROC FOR THE TREATMENT OF HIV-2 INFECTION” (Tobira Therapeutics, Inc., priority 2014, published 2017).
Marks after values point to notes of the source that are not given here.

Experiments:
[1] = target: CCR5 (Homo sapiens, UniProt P51681); test: CCR5 receptor occupancy / internalization in PBMCs by flow cytometry; assay type: cell-based
Experimental: The capacity of each drug to inhibit CCR5 or CCR2 internalization was evaluated. Cell-surface expression of CCR5 and CCR2 was assessed by flow cytometry, and fluorescence values were converted into molecules of equivalent soluble fluorescence (MESF).

[2] = test system: CCR5-tropic HIV-1; test: Study 201: plasma HIV-1 RNA over 10 days of CVC monotherapy; assay type: in vivo, human; settings: for subjects who achieved HIV-1 RNA levels <400 copies/mL: over the entire study; for HIV-1 RNA, LS mean (SEM) change from Baseline / HIV-1 RNA, Median change from Baseline: Day 11
Experimental: (§1) Subjects were antiretroviral treatment experienced, CCR5 antagonist-naïve, with HIV-1 RNA levels of at least 5000 copies/mL and CD4+ cell counts of at least 250 cells/mm^3. Subjects with HIV-2, hepatitis B virus, or hepatitis C virus co-infection or dual/mixed-tropic HIV-1 were ineligible. Other than their HIV-1 infection, subjects were generally healthy.
In this study, all dose groups received the original formulation (DP3_25), except the 100 mg dose group which received an alternative formulation (DP4_100). […] These subjects were excluded from the efficacy, PK, and PK/PD data, but included in the baseline and safety data. In this study, safety and tolerability were assessed by monitoring AEs, vital signs, ECGs, clinical laboratory values from blood and urine, and physical examinations. Data from all subjects on placebo were pooled for the analyses.

[3] = test system: HIV; test: Ex vivo intracellular HIV DNA (qPCR) in PBMCs of Study 202 subjects; settings: Week 24
Experimental: Early (strong-stop) and late (full-length) reverse transcript levels were measured by qPCR. […] P24 and viral load levels were measured by ELISA and qRT-PCR after 4 hours.

[4] = test system: HIV-1; test: Study 201: pharmacokinetic/pharmacodynamic relationships (Emax model); assay type: in vivo, human
Text: Drug response was characterized using the following maximum effect (Emax) model: […]

[5] = test system: RANTES-induced Ca2+ mobilization; test: RANTES-induced Ca2+ mobilization; assay type: cell-based
[6] = test system: HIV-1; test: Study 202: virologic response (plasma HIV-1 RNA <50 copies/mL), Snapshot algorithm, ITT; assay type: in vivo, human; settings: Week 24
Text: The primary efficacy endpoint was the percentage of subjects with plasma HIV-1 RNA <50 copies/mL at Week 24 (using the FDA Snapshot algorithm and the ITT population).

[7] = target: T1, CCR1 (Homo sapiens, UniProt P32246); test: Ligand binding to CCR1
T1 sequence (P32246 1-355): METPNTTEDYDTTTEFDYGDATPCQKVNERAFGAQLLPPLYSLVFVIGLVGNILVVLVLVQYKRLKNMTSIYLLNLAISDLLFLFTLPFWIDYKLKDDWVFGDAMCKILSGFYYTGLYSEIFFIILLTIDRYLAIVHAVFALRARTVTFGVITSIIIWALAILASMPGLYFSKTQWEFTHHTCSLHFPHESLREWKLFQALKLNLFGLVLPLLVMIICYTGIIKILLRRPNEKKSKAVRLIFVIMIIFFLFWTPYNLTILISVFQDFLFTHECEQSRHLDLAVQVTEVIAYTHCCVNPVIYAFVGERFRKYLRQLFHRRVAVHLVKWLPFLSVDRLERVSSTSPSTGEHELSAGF

[8] = test system: HIV-2 clinical isolates; test: HIV-2 phenotypic susceptibility, ANRS PBMC method; assay type: cell-based; settings: for EC50: Human immunodeficiency virus 2, PBMC
Experimental: All patients were infected with HIV-2 group A. Tropism was determined phenotypically using Ghost(3) cell lines expressing CD4 receptor and one HIV coreceptor, CCR5 or CXCR4. Both Ghost(3) cell lines carries a humanized green fluorescent protein (GFP) gene, under the control of a HIV-2 LTR. […] Ghost(3) cells were provided by the NIH AIDS Reagent program.
Briefly, cell-free HIV-2 positive supernatant was serially diluted (1, 10^−1, and 10^−2) and incubated with PBMC for viral titration. Viruses were tested at a 100 TCID50 titration. Cells were pre-incubated with cenicriviroc or maraviroc at an appropriate concentration 1 hour before viral infection. Six serial dilutions of the antiretroviral drug were tested in quadruplicate. On day 4, viral replication was assessed by a specific viral load assay (Generic HIV-2 viral load, Biocentric, France).

[9] = test system: MCP-1; test: Study 201: inflammatory markers MCP-1, hs-CRP, IL-6; assay type: in vivo, human
Text: Exploratory efficacy endpoints included changes in the inflammatory markers MCP-1, hs-CRP, and IL-6.
as §1

[10] = HIV-2 isolate 10-046, group A, R5
[11] = HIV-2 isolate 10-051, group A, R5
[12] = HIV-2 isolate 10-055, group A, X4
[13] = HIV-2 isolate 10-056, group A, R5
[14] = HIV-2 isolate 10-069, group A, Dual
[15] = HIV-2 isolate 10-074, group A, R5

Chain of CCR5 (P51681 whole entry): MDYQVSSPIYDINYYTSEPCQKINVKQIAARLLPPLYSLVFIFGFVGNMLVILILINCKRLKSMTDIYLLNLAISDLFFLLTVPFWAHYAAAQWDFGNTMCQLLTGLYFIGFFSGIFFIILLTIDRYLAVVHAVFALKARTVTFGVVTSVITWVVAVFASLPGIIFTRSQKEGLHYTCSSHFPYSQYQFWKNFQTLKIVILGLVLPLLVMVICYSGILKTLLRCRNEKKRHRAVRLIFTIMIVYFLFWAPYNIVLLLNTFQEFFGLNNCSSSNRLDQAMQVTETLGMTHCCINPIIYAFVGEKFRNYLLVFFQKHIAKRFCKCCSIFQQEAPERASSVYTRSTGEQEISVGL

## CCCCOCCOc1ccc(-c2ccc3c(c2)/C=C(/C(=O)Nc2ccc([S@@+]([O-])Cc4cncn4CCC)cc2)CCCN3CC(C)C)cc1 [CVC, (S)-8-[4-(2-Butoxyethoxy)phenyl]-1-isobutyl-N-(4-{[(1-propyl-1H-imidazol-5-yl)methyl]sulfinyl}phenyl)-1,2,3,4-tetrahydro-1-benzazocine-5-carboxamide]
[1]; CD4+ T cells
  effective concentration at which saturation of CCR5 was reached: 3.1 nM
[1]; CD4+ T-cells ex vivo in humans
  concentration achieving ≧90% receptor occupancy for CCR5: 3.1 nM
[1]; CD8+ T cells
  effective concentration at which saturation of CCR5 was reached: 2.3 nM
[1]; CD8+ T-cells ex vivo in humans
  concentration achieving ≧90% receptor occupancy for CCR5: 2.3 nM
[1]; PBMCs
  prevention of RANTES-induced CCR5 internalization (in words): at lower effective concentrations than MVC
[1]; in the absence of RANTES, PBMCs
  cell-surface expression of CCR5 (in words): increased cell-surface expression of CCR5
[2]; 25 mg cohort, Baseline
  HIV-1 RNA, Baseline LS mean (SEM): 4.46 (0.18) log10 copies/mL
[2]; 25 mg dose group
  subjects who achieved HIV-1 RNA levels <400 copies/mL: 1
[2]; 25 mg once daily
  HIV-1 RNA, Nadir values, Median change from Baseline: −0.7 log10 copies/mL
  Median days to nadir: 10.0 days
  HIV-1 RNA, LS mean (SEM) change from Baseline: −0.64 (0.14) log10 copies/mL
  HIV-1 RNA, Median change from Baseline: −0.5 log10 copies/mL
[2]; 50 mg cohort, Baseline
  HIV-1 RNA, Baseline LS mean (SEM): 4.33 (0.21) log10 copies/mL
[2]; 50 mg dose group
  subjects who achieved HIV-1 RNA levels <400 copies/mL: 2
[2]; 50 mg once daily
  HIV-1 RNA, Nadir values, Median change from Baseline: −1.6 log10 copies/mL
  Median days to nadir: 11.0 days
  HIV-1 RNA, LS mean (SEM) change from Baseline: −1.13 (0.16) log10 copies/mL
  HIV-1 RNA, Median change from Baseline: −1.3 log10 copies/mL
[2]; 75 mg cohort, Baseline
  HIV-1 RNA, Baseline LS mean (SEM): 4.65 (0.19) log10 copies/mL
[2]; 75 mg once daily
  HIV-1 RNA, Nadir values, Median change from Baseline: −1.8 log10 copies/mL
  Median days to nadir: 10.0 days
  HIV-1 RNA, LS mean (SEM) change from Baseline: −1.46 (0.15) log10 copies/mL
  HIV-1 RNA, Median change from Baseline: −1.6 log10 copies/mL
[2]; 150 mg cohort, Baseline
  HIV-1 RNA, Baseline LS mean (SEM): 4.10 (0.19) log10 copies/mL
[2]; 150 mg dose group
  subjects who achieved HIV-1 RNA levels of <50 copies/mL: 2
  subjects who achieved HIV-1 RNA levels <400 copies/mL: 3
[2]; 150 mg once daily
  HIV-1 RNA, Nadir values, Median change from Baseline: −1.7 log10 copies/mL
  Median days to nadir: 11.0 days
  HIV-1 RNA, LS mean (SEM) change from Baseline: −1.42 (0.16) log10 copies/mL
  HIV-1 RNA, Median change from Baseline: −1.5 log10 copies/mL
[2]; Baseline, Day 7, Day 40, all subjects with evaluable samples
  drug resistance testing (in words): remained fully susceptible
[3]; CVC 100 mg arm
  Strong-stop HIV DNA decline (marker of HIV entry): 51%
[3]; CVC 200 mg arm
  Strong-stop HIV DNA decline (marker of HIV entry): 37%
[4]; HIV-1 RNA, Study 201
  Emax in the PK/PD model: −1.43 log10 copies/mL
[4]; Human immunodeficiency virus 1, 25 mg dose, read-out: percent of the maximum inhibitory effect at average Css (Emax model)
  Emax at 25 mg: 54.9%
[4]; Human immunodeficiency virus 1, 50 mg dose, read-out: percent of the maximum inhibitory effect at average Css (Emax model)
  Emax at 50 mg: 79.8%
[4]; Human immunodeficiency virus 1, 75 mg dose, read-out: percent of the maximum inhibitory effect at average Css (Emax model)
  Emax at 75 mg: 85.9%
[4]; Human immunodeficiency virus 1, 150 mg dose, read-out: percent of the maximum inhibitory effect at average Css (Emax model)
  Emax at 150 mg: 95.9%
[5]
  RANTES-induced Ca2+ mobilization (in words): blocked
[6]; CVC 100 mg
  virologic non-response, subgroup with high baseline viral load (≧100,000 copies/mL): 20%
[6]; CVC 100 mg arm
  HIV-1 RNA ≧400 copies/mL: (7%)
  Treatment difference from EFV arm: 5%
[6]; CVC 200 mg
  virologic non-response, subgroup with high baseline viral load (≧100,000 copies/mL): 29%
[6]; CVC 200 mg arm
  Discontinued study due to AE or death: (2%)
  HIV-1 RNA ≧50 but <400 copies/mL: (7%)^e
  Treatment difference from EFV arm: 4%
[7]
  inhibition of ligand binding (in words): did not inhibit
[8]; [10]
  MPI (%): 94%
  EC50: 0.03 nM
[8]; [11]
  MPI (%): 93%
  EC50: 0.45 nM
[8]; [12]
  MPI (%): 4%
  EC50: > 1000 nM
[8]; [13]
  MPI (%): 94%
  EC50: 0.33 nM
[8]; [14]
  MPI (%): 33%
  EC50: > 1000 nM
[8]; [15]
  MPI (%): 98%
  EC50: 0.98 nM
[9]; 25 mg cohort
  MCP-1, Baseline Mean: 20.0 pg/mL
  MCP-1, Baseline Median: 16.0 pg/mL
[9]; 25 mg once daily
  MCP-1, Change from Baseline to Day 10, Median: +25.0 pg/mL
  MCP-1, Day 10 Mean: 75.3 pg/mL
  MCP-1, Day 10 Median: 39.0 pg/mL
[9]; 50 mg cohort
  MCP-1, Baseline Mean: 12.6 pg/mL
  MCP-1, Baseline Median: 6.0 pg/mL
[9]; 50 mg once daily
  MCP-1, Change from Baseline to Day 10, Median: +56.0 pg/mL
  MCP-1, Day 10 Mean: 101.3 pg/mL
  MCP-1, Day 10 Median: 65.0 pg/mL
[9]; 75 mg cohort
  MCP-1, Baseline Mean: 26.6 pg/mL
  MCP-1, Baseline Median: 8.0 pg/mL
[9]; 75 mg once daily
  MCP-1, Change from Baseline to Day 10, Median: +36.0 pg/mL
  MCP-1, Day 10 Mean: 59.1 pg/mL
  MCP-1, Day 10 Median: 43.5 pg/mL
[9]; 150 mg cohort
  MCP-1, Baseline Mean: 31.6 pg/mL
  MCP-1, Baseline Median: 19.5 pg/mL
[9]; 150 mg once daily
  MCP-1, Change from Baseline to Day 10, Median: +322.0 pg/mL
  MCP-1, Day 10 Mean: 372.0 pg/mL
  MCP-1, Day 10 Median: 368.0 pg/mL
[9]; 10-day study
  effect on hs-CRP or IL-6 levels (in words): no effect
